Key:
cheatgrass = assay: Test B preemergence/postemergence greenhouse plant response rating 0 to 10; type: in vivo, Bromus secalinus; details: 0 to 10 scale
Procedure, shortened: (§1)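 Test chemicals were sprayed onto freshly planted seed and, concurrently, onto young plants between the one and four leaf stage. After a twelve- to sixteen-day greenhouse period, each species was visually compared with untreated controls.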

corn = assay: as above; type: in vivo, Zea mays; details: 0 to 10 scale
Procedure, shortened: as §1

cotton [1] = assay: as above; type: in vivo, Gossypium hirsutum; details: 0 to 10 scale
Procedure, shortened: as §1

lambsquarters [2] = assay: as above; type: in vivo, Chenopodium album; details: 0 to 10 scale
Procedure, shortened: as §1

rice = assay: as above; type: in vivo, Oryza sativa; details: 0 to 10 scale
Procedure, shortened: as §1

wheat = assay: as above; type: in vivo, Triticum aestivum; details: 0 to 10 scale
Procedure, shortened: as §1

wild oat = assay: as above; type: in vivo, Avena fatua; details: 0 to 10 scale
Procedure, shortened: as §1

bedstraw = assay: Test C preemergence/postemergence greenhouse plant response rating 0 to 100; type: in vivo, Galium aparine; details: POSTEMERGENCE; for Plant response rating, Bedstraw: 0 to 100 scale
Excerpt: (§2) The compounds evaluated in this test were formulated in a non-phytoxic solvent and applied to the soil surface before plant seedlings emerged (preemergence application), to water that covered the soil surface (flood application), and to plants that were in the one-to-four leaf stage (postemergence application). A sandy loam soil was used for the preemergence and postemergence tests, while a silt loam soil was used in the flood test. Water depth was approximately 2.5 cm for the flood test and was maintained at this level for the duration of the test. Plant species in the preemergence and postemergence tests consisted of barley (Hordeum vulgare), bedstraw (Galium aparine), blackgrass (Alopecurus myosuroides), chickweed (Stellaria media), corn (Zea mays), cotton (Gossypium hirsutum), crabgrass (Digitaria sanguinalis), downy brome (Bromus tectorum), giant foxtail (Setaria faberii), lambsquarters (Chenopodium album), morningglory (Ipomoea hederacea), pigweed ([…]), rape (Brassica napus), ryegrass (Lolium multiflorum), sorghum (Sorghum bicolor), soybean (Glycine max), speedwell (Veronica persica), sugar beet (Beta vulgaris), velvetleaf (Abutilon theophrasti), wheat (Triticum aestivum), wild buckwheat (Polygonum convolvulus), and wild oat (Avena fatua). All plant species were planted one day before application of the compound for the preemergence portion-of this test. Plantings of these species were adjusted to produce plants of appropriate size for the post-emergence portion of the test. […] All plant species were grown using normal greenhouse practices. Visual evaluations of injury expressed on treated plants, when compared to untreated controls, were recorded approximately fourteen to twenty one days after application of the test compound. […] A dash (-) response means no test result.

cotton [3] = assay: as above; type: in vivo, Gossypium hirsutum; details: POSTEMERGENCE; for Plant response rating, Cotton: 0 to 100 scale
Excerpt: as §2

crabgrass = assay: as above; type: in vivo, Digitaria sanguinalis; details: POSTEMERGENCE; for Plant response rating, Crabgrass: 0 to 100 scale
Excerpt: as §2

downy brome = assay: as above; type: in vivo, Bromus tectorum; details: POSTEMERGENCE; for Plant response rating Downy Brome: 0 to 100 scale
Excerpt: as §2

giant foxtail = assay: as above; type: in vivo, Setaria faberii; details: POSTEMERGENCE; for Plant response rating, Giant foxtail: 0 to 100 scale
Excerpt: as §2

lambsquarters [4] = assay: as above; type: in vivo, Chenopodium album; details: POSTEMERGENCE; for Plant response rating Lambsquarters: 0 to 100 scale
Excerpt: as §2

sorghum = assay: as above; type: in vivo, Sorghum bicolor; details: POSTEMERGENCE; for Plant response rating, Sorghum: 0 to 100 scale
Excerpt: as §2

sugar beet = assay: as above; type: in vivo, Beta vulgaris; details: POSTEMERGENCE; for Plant response rating, Sugar beet: 0 to 100 scale
Excerpt: as §2

velvetleaf = assay: as above; type: in vivo, Abutilon theophrasti; details: POSTEMERGENCE; for Plant response rating, Velvetleaf: 0 to 100 scale
Excerpt: as §2

duck salad = assay: Test C flood test plant response rating 0 to 100; type: in vivo, Heteranthera limosa; details: for Plant response rating Duck salad: flood test species listed under POSTEMERGENCE, 0 to 100 scale
Excerpt: as §2

barnyardgrass = assay: Test C flood test plant response rating 0 to 100; type: in vivo, Echinochloa crus-galli; details: for Plant response rating, Barnyardgrass: flood test species listed under POSTEMERGENCE, 0 to 100 scale
Excerpt: as §2

[5] = POSTEMERGENCE section, flood test, Rate 4 g/ha
[6] = Rate 16 g/ha, under POSTEMERGENCE head (flood test species)

COC(=O)c1cc(-c2nn3c(c2Cl)CCCC3)c(F)cc1Cl [Compound 43]
Plant response rating, Cheatgrass (cheatgrass; POSTEMERGENCE, Rate 50 g/ha): 6 | Plant response rating, Cheatgrass (cheatgrass; POSTEMERGENCE, Rate 200 g/ha): 9 | Plant response rating, Cheatgrass (cheatgrass; PREEMERGENCE, Rate 50 g/ha): 2 | Plant response rating, Cheatgrass (cheatgrass; Rate 200 g/ha, PREEMERGENCE): 3 | Plant response rating, Corn (corn; POSTEMERGENCE, Rate 50 g/ha): 8 | Plant response rating, Corn (corn; POSTEMERGENCE, Rate 200 g/ha): 10 | Plant response rating, Corn (corn; PREEMERGENCE, Rate 50 g/ha): 0 | Plant response rating, Corn (corn; Rate 200 g/ha, PREEMERGENCE): 0 | Plant response rating, Cotton (cotton [1]; POSTEMERGENCE, Rate 50 g/ha): 10 | Plant response rating, Cotton (cotton [1]; POSTEMERGENCE, Rate 200 g/ha): 10 | Plant response rating, Cotton (cotton [1]; PREEMERGENCE, Rate 50 g/ha): 0 | Plant response rating, Cotton (cotton [1]; Rate 200 g/ha, PREEMERGENCE): 1 | Plant response rating, Lambsquarter (lambsquarters [2]; POSTEMERGENCE, Rate 50 g/ha): 8 | Plant response rating, Lambsquarter (lambsquarters [2]; PREEMERGENCE, Rate 50 g/ha): 9 | Plant response rating, Lambsquarter (lambsquarters [2]; Rate 200 g/ha, POSTEMERGENCE): 10 | Plant response rating, Lambsquarter (lambsquarters [2]; Rate 200 g/ha, PREEMERGENCE): 10 | Plant response rating, Rice (rice; POSTEMERGENCE, Rate 50 g/ha): 7 | Plant response rating, Rice (rice; PREEMERGENCE, Rate 50 g/ha): 1 | Plant response rating, Rice (rice; Rate 200 g/ha, POSTEMERGENCE): 9 | Plant response rating, Rice (rice; Rate 200 g/ha, PREEMERGENCE): 2 | Plant response rating, Wheat (wheat; POSTEMERGENCE, Rate 50 g/ha): 3 | Plant response rating, Wheat (wheat; PREEMERGENCE, Rate 50 g/ha): 0 | Plant response rating, Wheat (wheat; Rate 200 g/ha, POSTEMERGENCE): 8 | Plant response rating, Wheat (wheat; Rate 200 g/ha, PREEMERGENCE): 2 | Plant response rating, Wild oat (wild oat; POSTEMERGENCE, Rate 50 g/ha): 5 | Plant response rating, Wild oat (wild oat; PREEMERGENCE, Rate 50 g/ha): 2 | Plant response rating, Wild oat (wild oat; Rate 200 g/ha, POSTEMERGENCE): 7 | Plant response rating, Bedstraw (bedstraw; 62 g/ha): 70 | Plant response rating, Bedstraw (bedstraw; 250 g/ha): 100 | Plant response rating (0 to 100), Bedstraw (bedstraw; Rate 4 g/ha): 40 | Plant response rating (0 to 100), Bedstraw (bedstraw; Rate 16 g/ha): 60 | Plant response rating, Cotton (cotton [3]; 62 g/ha): 100 | Plant response rating, Cotton (cotton [3]; 250 g/ha): 100 | Plant response rating (0 to 100), Cotton (cotton [3]; Rate 4 g/ha): 90 | Plant response rating (0 to 100), Cotton (cotton [3]; Rate 16 g/ha): 90 | Plant response rating, Crabgrass (crabgrass; 62 g/ha): 20 | Plant response rating, Crabgrass (crabgrass; 250 g/ha): 60 | Plant response rating (0 to 100), Crabgrass (crabgrass; Rate 4 g/ha): 10 | Plant response rating (0 to 100), Crabgrass (crabgrass; Rate 16 g/ha): 20 | Plant response rating Downy Brome (downy brome; 62 g/ha): 50 | Plant response rating Downy Brome (downy brome; 250 g/ha): 80 | Plant response rating (0 to 100), Downy Brome (downy brome; Rate 4 g/ha): 30 | Plant response rating (0 to 100), Downy Brome (downy brome; Rate 16 g/ha): 40 | Plant response rating, Giant foxtail (giant foxtail; 62 g/ha): 50 | Plant response rating, Giant foxtail (giant foxtail; 250 g/ha): 85 | Plant response rating (0 to 100), Giant foxtail (giant foxtail; Rate 4 g/ha): 40 | Plant response rating (0 to 100), Giant foxtail (giant foxtail; Rate 16 g/ha): 50 | Plant response rating Lambsquarters (lambsquarters [4]; 62 g/ha): 100 | Plant response rating Lambsquarters (lambsquarters [4]; 250 g/ha): 100 | Plant response rating (0 to 100), Lambsquarters (lambsquarters [4]; Rate 4 g/ha): 90 | Plant response rating (0 to 100), Lambsquarters (lambsquarters [4]; Rate 16 g/ha): 100 | Plant response rating, Sorghum (sorghum; 62 g/ha): 100 | Plant response rating, Sorghum (sorghum; 250 g/ha): 100 | Plant response rating (0 to 100), Sorghum (sorghum; Rate 4 g/ha): 40 | Plant response rating (0 to 100), Sorghum (sorghum; Rate 16 g/ha): 60 | Plant response rating, Sugar beet (sugar beet; 62 g/ha): 60 | Plant response rating, Sugar beet (sugar beet; 250 g/ha): 80 | Plant response rating (0 to 100), Sugar beet (sugar beet; Rate 4 g/ha): 30 | Plant response rating (0 to 100), Sugar beet (sugar beet; Rate 16 g/ha): 40 | Plant response rating, Velvetleaf (velvetleaf; 62 g/ha): 100 | Plant response rating, Velvetleaf (velvetleaf; 250 g/ha): 100 | Plant response rating (0 to 100), Velvetleaf (velvetleaf; Rate 4 g/ha): 50 | Plant response rating (0 to 100), Velvetleaf (velvetleaf; Rate 16 g/ha): 100 | Plant response rating (0 to 100), Duck salad (duck salad; [5]): 0 | Plant response rating (0 to 100), Duck salad (duck salad; [6]): 0 | Plant response rating Duck salad (duck salad; 62 g/ha): 25 | Plant response rating Duck salad (duck salad; 250 g/ha): 45 | Plant response rating (0 to 100), Barnyardgrass (barnyardgrass; [5]): 45 | Plant response rating (0 to 100), Barnyardgrass (barnyardgrass; [6]): 95 | Plant response rating, Barnyardgrass (barnyardgrass; 62 g/ha): 100 | Plant response rating, Barnyardgrass (barnyardgrass; 250 g/ha): 100
